Test results: article PMC2970562, “High-Affinity Inhibitors of Human NAD^+-Dependent 15-Hydroxyprostaglandin Dehydrogenase: Mechanisms of Inhibition and Structure-Activity Relationships” (PLoS ONE, 2010)
Like-named read-outs stand apart in the source and are kept apart here.

Columns and labels:
human 15-PGDH [1] = target: T1, human 15-PGDH (Homo sapiens, UniProt P15428); experiment: Differential scanning fluorimetry (DSF), thermal stabilization; format: binding; details: 1 µM protein, compound 50 or 250 µM, N/A = no unfolding transition observed in DSF; for ∆Tm [°C] NAD+: with 200 µM NAD+; for ∆Tm [°C] NADH: with 200 µM NADH; for ∆Tm [°C] apo: without cofactor
T1 construct: comprising residues 3–256 of the human HPGD gene (GenBank identifier: 1203982); His6 (GHHHHHH, behind the TEV site) (C, cleaved yes); made in house; host or cells: E. coli BL21(DE3)-R3
T1 sequence (P15428 3-256): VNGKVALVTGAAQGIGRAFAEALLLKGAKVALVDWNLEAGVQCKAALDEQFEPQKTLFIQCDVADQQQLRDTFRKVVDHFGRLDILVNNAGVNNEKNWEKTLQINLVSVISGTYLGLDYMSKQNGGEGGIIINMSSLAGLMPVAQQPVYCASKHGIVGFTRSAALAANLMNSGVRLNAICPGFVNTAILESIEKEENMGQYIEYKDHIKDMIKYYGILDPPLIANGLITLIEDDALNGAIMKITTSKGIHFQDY
Experimental: A correlation between the ΔTm and the inhibitory potency has been shown in a number of protein-ligand systems, particularly for kinases [32]–[34].
Studies to assess the thermal stability of human 15-PGDH in presence of compounds were performed as described previously, with variations. Briefly, the protein was diluted to a final assay concentration of 1 µM in 100 mM Tris buffer pH 8.0, containing 0.01% Tween-20 and 1∶1000 SYPRO orange dye (Invitrogen). […] Compounds were added at a ratio of 1∶5 from appropriate stock solutions in 10% (v/v) DMSO to comprise either 50 or 250 µM final concentrations. Heat denaturation curves were recorded using a RT-PCR instrument (Mx3005p, Agilent) applying a temperature gradient of 2°C/min. […] 2.5 (ftp://ftp.sgc.ox.ac.uk/pub/biophysics) and PRISM 5.0 (GraphPad Software, Inc.).

human 15-PGDH [2] = target: T1, human 15-PGDH; experiment: qHTS and 24-point re-test: fluorescence assay of NAD+ reduction to NADH on PGE2 oxidation (PubChem AID 894); format: biochemical
Experimental: The assay was miniaturized to a 4-µL volume in 1536-well format: enzyme (3 µL) was dispensed first, followed by a pintool transfer of library compounds dissolved in DMSO. After equilibration, a substrate dispense (1 µL) initiated the enzymatic reaction (see Materials and Methods, for detailed protocol description). […] Hits associated with low-efficacy (<40% maximum inhibition), incomplete curves, as well as those displaying only a single-point inhibition at the top concentration tested were eliminated from further consideration. Similarly, the collection of real-time kinetic data allowed the autofluorescence of each compound to be evaluated by comparing the initial fluorescence read at top concentration with the mean value of uninhibited assay controls: compounds whose top-concentration initial well fluorescence exceeded six standard deviations over the mean were flagged as potential autofluorescent artifacts, [28] (see example in supplementary information Figure S1E). The complete screening and followup results are available in PubChem (PubChem Assay ID 894).
The enzymatic reaction was performed in 50 mM Tris-HCl pH 8.0, containing 0.01% Tween 20. […] The high-throughput screen was performed on a fully integrated robotic system (Kalypsys Inc, San Diego, CA) as described elsewhere. Library compounds, arrayed as seven-point inter-plate concentration series, were screened from the lowest (3.5 nM) to the highest (57.5 µM) concentration, with plates containing DMSO only, serving to note any systematic drifts in the signal, interspersed evenly throughout the screen (approximately every 50 plates). Briefly, 3 µL of reagents were dispensed into 1536-well Greiner black solid-bottom assay plates using integrated nanoliter solenoid-technology dispensers. Compounds and controls (23 nL) were transferred via Kalypsys pintool equipped with 1,536-pin array (10-nL slotted pins; V&P Scientific, Palo Alto, CA). After a 15-minute incubation (to allow for interaction between compound and enzyme), a 1-µL substrate addition step initiated the reaction. Kinetic data were collected on a ViewLux High-throughput CCD imager (Perkin-Elmer) equipped with standard UV fluorescence optics (exc. 340 nm, em. 450 nm).
Starting fluorescence intensity and the change in fluorescence over the two-minute initial rate period were recorded for every well. Screening data were normalized against no-enzyme (64 wells, columns 3 and 4) and no-compound (32 wells located in column 1) controls, and concentration-response relationships were derived as described previously. A four-parameter Hill equation [47] was fitted to the concentration-response data using publicly available algorithms (http://www.ncgc.nih.gov/pub/openhts/curvefit/).

[3] = potency in 24-point titrations on re-test, 20 nM 15-PGDH, 1 mM NAD+, 30 µM PGE2, pH 8.0, read-out: qHTS IC50

| Compound | ∆Tm [°C] NAD+ (human 15-PGDH [1]) | ∆Tm [°C] NADH (human 15-PGDH [1]) | ∆Tm [°C] apo (human 15-PGDH [1]) | IC50 (human 15-PGDH [2]; [3]) | IC50 (human 15-PGDH [2]; read-out: qHTS IC50) | IC50 (human 15-PGDH [2]; control inhibitor, 16-point dilution series in duplicate on every qHTS plate, read-out: average IC50) |
| --- | --- | --- | --- | --- | --- | --- |
| C=C(C(=O)OC)C1CCC2(C)C(OC(=O)C(Cc3ccc(O)cc3)OC(=O)C(O)C(C)C)CCC(O)(COC3OC(CO)C(O)C(O)C3O)C2C1O (stereo not shown) [Compound 2] | 1.7 °C | 6.0 °C | -0.6 °C | 794 nM |  |  |
| COc1ccccc1C(=O)Nc1ccc(C(=O)N2CCCC2)cc1 [Compound 4] | 2.2 °C | 4.7 °C | 0.3 °C | 1000 nM |  |  |
| CC1CCN(C(=O)c2ccc(CSc3ccc(Cl)cc3)cc2)CC1 [Compound 5] | 2.3 °C | 7.1 °C | -0.8 °C |  | 631 nM |  |
| O=C(c1ccc(COc2ccccc2Br)cc1)N1CCCCC1 [Compound 7] | 7.1 °C | 10.6 °C | -0.1 °C |  | 89 nM |  |
| C[C@H]1CCCCN1C(=O)CSc1nnc(-c2ccccc2F)o1 [Compound 17] | 3.3 °C | 4.4 °C | 0.1 °C | 708 nM |  |  |
| Cc1ccccc1C(=O)N1CCc2ccccc2C1 [Compound 18] | 1.5 °C | 2.2 °C | -1.1 °C | 2510 nM |  |  |
| CCCC(NC(=O)Cn1c(-c2cccs2)n[nH]c1=S)c1ccccc1 (stereo not shown) [Compound 23] | 1.2 °C | 1.6 °C | -0.4 °C | 2240 nM |  |  |
| COc1ccccc1NS(=O)(=O)c1cc(C(=O)N2CCC2)ccc1C [Compound 30] | 2.4 °C | 6.4 °C | 0.2 °C | 562 nM |  |  |
| CCCCCCCCNCCOCCOCCOCCOCCNCCCCCCCC [Compound 31] | 1.1 °C | 4.8 °C | -0.1 °C | 3980 nM |  |  |
| CCCC(CCCCCCC(=O)c1cn(CCCC(=O)OCC)c2ccccc12)c1ccc(CC(C)C)cc1 (stereo not shown) [Compound 34] | 2.0 °C | 6.4 °C | 0.1 °C | 794 nM |  |  |
| COc1ccc(C2C(C(=O)O)c3ccccc3C(=O)N2Cc2ccccc2)cc1 (stereo not shown) [Compound 35] | 1.2 °C | 2.2 °C | -0.1 °C | 7080 nM |  |  |
| CCN(CC)C(=O)c1sc2nc(-c3cccs3)cc(-c3ccc(Cl)cc3)c2c1N [Compound 36] | 0.9 °C | 2.9 °C | -1.5 °C | 10000 nM |  |  |
| Cc1cc([N+](=O)[O-])c2c(c1C)[C@@H]1C=CC[C@@H]1C(c1cccc(Cl)c1)N2 (stereo partly shown) [Compound 37] | 1.1 °C | 5.0 °C | -2.0 °C | 2000 nM |  |  |
| COCCNC(=O)c1cc2oc3ccccc3c2n1C [Compound 45] | 2.7 °C | 2.9 °C | -1.9 °C | 1580 nM |  |  |
| Cc1ccc2cc3c(N)c(C(=O)N4CCC(C)CC4)sc3nc2c1 [Compound 48] | 0.5 °C | 3.3 °C | -0.6 °C | 1000 nM |  |  |
| CC(C)(C)OC(=O)NC(Cc1csc2ccccc12)C(=O)CCc1cc(C(F)(F)F)cc(C(F)(F)F)c1 (stereo not shown) [Compound 50] | 1.9 °C | 1.7 °C | -1.9 °C | 6310 nM |  |  |
| Cc1ccc(C2=NC(=CN3CCOCC3)C(=O)O2)cc1 [Compound 54] | 6.0 °C | 3.9 °C | -1.5 °C | 2510 nM |  |  |
| Brc1ccc(-c2cc3n(n2)CCc2nc4ccccc4n2-3)cc1 [Compound 55] | 3.7 °C | 4.7 °C | 0.1 °C | 1120 nM |  |  |
| CC(O)CN(C)C(C)N(CCN(C)C)CCN(C)C (stereo not shown) [Compound 56] | 6.1 °C | 0.4 °C | 0.0 °C | 1000 nM |  |  |
| COc1ccc(C(=O)OCC(=O)Nc2c(C)cccc2C)cc1S(=O)(=O)N(C)C [Compound 57] | 9.2 °C | 1.6 °C | -0.3 °C | 2240 nM |  |  |
| CC1(C)Oc2c(N=C=O)ccc(Cl)c2C1=O [Compound 87] |  |  |  | 3160 nM |  |  |
| O=C1Nc2ccc(I)cc2/C1=C/c1cc(Br)c(O)c(Br)c1 [GW5074, reference compound] |  |  |  |  |  | 10400 nM |

Continued, values first:

| ∆Tm [°C] NAD+ (human 15-PGDH [1]) | ∆Tm [°C] NADH (human 15-PGDH [1]) | ∆Tm [°C] apo (human 15-PGDH [1]) | IC50 (human 15-PGDH [2]; [3]) | IC50 (human 15-PGDH [2]; read-out: qHTS IC50) | IC50 (human 15-PGDH [2]; control inhibitor, 16-point dilution series in duplicate on every qHTS plate, read-out: average IC50) | Compound |
| --- | --- | --- | --- | --- | --- | --- |
| 3.0 °C | 6.1 °C | -0.1 °C | 251 nM |  |  | O=C(c1ccc(N2C(=O)C3CC=C(Cl)CC3C2=O)cc1)N1CCCCC1 (stereo not shown) [Compound 1] |
| 2.1 °C | 6.7 °C | -0.6 °C | 562 nM |  |  | CCCCCCOCCCCc1ccc(-c2ccc(OCCCCCCC3CC3)nc2)nn1 [Compound 3] |
| 3.0 °C | 6.6 °C | -1.4 °C | 200 nM |  |  | C=CCN1C(=O)[C@@H](CC(=O)Nc2cc(C)ccc2C)SC1=Nc1cc(C)cc(C)c1 [Compound 8] |
| 2.2 °C | 7.8 °C | -1.1 °C | 224 nM |  |  | O=C(O)CC1(CO)CC1 [Compound 9] |
| 3.8 °C | 10.6 °C | -0.4 °C | 126 nM |  |  | CC1CCCN(C(=O)c2ccc(COc3ccccc3Br)cc2)C1 (stereo not shown) [Compound 11] |
| 2.2 °C | 7.1 °C | -1.6 °C | 355 nM |  |  | CN(Cc1cccc(Cl)c1)c1ccc(S(C)(=O)=O)cc1S(C)(=O)=O [Compound 12] |
| 3.2 °C | 7.8 °C | -1.0 °C | 251 nM |  |  | C=CCOC12Oc3ccc(Oc4ccc(OC)c(C=O)c4)cc3C3C(CCCCO)C(CCCCO)C=C(C(=NOCC)CC1N(CCC)C(=O)OCCOCc1ccccc1)C32 (stereo not shown) [Compound 14] |
| 3.5 °C | 7.8 °C | -1.8 °C | 224 nM |  |  | Cc1cc(NC(=O)COC(=O)c2cccc(S(=O)(=O)NC(C)(C)C)c2)no1 [Compound 16] |
| 3.1 °C | 7.9 °C | 0.3 °C | 224 nM |  |  | COC(=O)c1cc(CNC(=O)C2(c3ccc(Cl)cc3)CC2)ccc1OC [Compound 20] |
| 2.7 °C | 8.4 °C | -0.1 °C | 501 nM |  |  | CN(C)C(=O)C(NCCc1c[nH]c2ccccc12)c1ccccc1 (stereo not shown) [Compound 29] |
| 3.9 °C | 9.6 °C | -1.4 °C | 282 nM |  |  | CCCC(C(=O)O)C(C)(C)O (stereo not shown) [Compound 32] |
| 7.5 °C | 4.8 °C | -0.5 °C | 316 nM |  |  | COc1ccc(NS(=O)(=O)Cc2ccccc2Cl)cc1 [Compound 42] |
